# Source: patent US8802664B2 (Bioproject, priority 2010, dated 2014)
# Where a name gives a salt, the structure may show the parent alone.
row,SMILES,melting point
1,"CN1CCC(NC(c2cccc(-c3ccccc3)c2)c2nc3ccccc3s2)CC1 (stereo not shown) (as salt: oxalate) [Example 102, (benzothiazol-2-ylbiphenyl-3-ylmethyl)(1-methylpiperidin-4-yl)amine]",112 °C
2,"CN1CCC(NC(c2cc3ccccc3o2)c2nc3ccccc3s2)CC1 (stereo not shown) (as salt: oxalate) [Example 37, [(benzofuran-2-yl)(benzothiazol-2-yl)methyl](1-methylpiperidin-4-yl)amine]",125 °C
3,"CN1CCC(OC(c2cccc(OCCCO)c2)c2nc3ccccc3s2)CC1 (stereo not shown) (as salt: oxalate) [Example 258, 3-{3-[benzothiazol-2-yl(1-methylpiperidin-4-yloxy)methyl]phenoxy}propan-1-ol]",79 °C
4,"CN1CCC(OC(c2cccc(CCCCN)c2)c2nc3ccccc3s2)CC1 (stereo not shown) (as salt: oxalate) [Example 366, 4-{3-[benzothiazol-2-yl(1-methylpiperidin-4-yloxy)methyl]phenyl}butylamine]",100 °C
5,"CN1CCC(OC(c2cc(F)cc(F)c2)c2nc3ccccc3s2)CC1 (stereo not shown) (as salt: oxalate) [Example 15, 2-[(3,5-difluorophenyl)(1-methyl-piperidin-4-yloxy)methyl]benzothiazole]",165 °C
6,"CCOc1cccc(C(OC2CCN(C)CC2)c2nc3ccccc3s2)c1 (stereo not shown) (as salt: oxalate) [Example 47, 2-[(3-ethoxyphenyl)(1-methylpiperidin-4-yloxy)methyl]benzothiazole]",84 °C
7,CN1CCC(OC(c2cccc(SCCCF)c2)c2nc3ccccc3[nH]2)CC1 (stereo not shown) (as salt: oxalate) [Example 508],85 °C
8,"Cc1ccc(C(OC2CCN(C)CC2)c2nc3ccccc3[nH]2)c(Cl)c1 (stereo not shown) (as salt: oxalate) [Example 213, 2-[(2-chloro-4-methylphenyl)(1-methylpiperidin-4-yloxy)methyl]-1H-benzimidazole]",96 °C
9,"CN1CCC(OC(c2cccc(C#CCCCN)c2)c2nc3cc(F)ccc3[nH]2)CC1 (stereo not shown) (as salt: oxalate) [Example 438, 5-{3-[(5-fluoro-1H-benzimidazol-2-yl)(1-methylpiperidin-4-yloxy)methyl]phenyl}pent-4-ynylamine]",150 °C
10,"CN1CCC(OC(c2cccc(OCC3CCNCC3)c2)c2nc3ccccc3s2)CC1 (stereo not shown) (as salt: oxalate) [Example 377, 2-{(1-methylpiperidin-4-yloxy)[3-(piperidin-4-ylmethoxy)phenyl]methyl}benzothiazole]",90 °C
11,"CN1CCC(OC(c2cccc(OC(F)(F)F)c2)c2nc3ccccc3[nH]2)CC1 (stereo not shown) (as salt: oxalate) [Example 280, 2-[(1-methylpiperidin-4-yloxy)(3-trifluoromethoxy-phenyl)methyl]-1H-benzimidazole]",172 °C
12,"CN1CCC(OC(c2cccc(OCCCN3CCOCC3)c2)c2nc3ccccc3s2)CC1 (stereo not shown) (as salt: oxalate) [Example 350, 2-{(1-methylpiperidin-4-yloxy)[3-(3-morpholin-4-yl-propoxy)phenyl]methyl}benzothiazole]",105 °C
13,"CC(=O)c1cccc(-c2cccc(C(OC3CCN(C)CC3)c3nc4ccccc4[nH]3)c2)c1 (stereo not shown) (as salt: oxalate) [Example 110, 1-{3′-[(1H-benzimidazol-2-yl)(1-methylpiperidin-4-yloxy)methyl]biphenyl-3-yl}ethanone]",140 °C
14,CN1CCC(OC(c2cccc(N3CCCC3CN)c2)c2nc3ccccc3s2)CC1 (stereo not shown) (as salt: oxalate) [Example 482],145 °C
15,"COc1ccc(-c2cccc(C(NC3CCN(C)CC3)c3nc4ccccc4s3)c2)cc1 (stereo not shown) (as salt: oxalate) [Example 211, [benzothiazol-2-yl(4′-methoxybiphenyl-3-yl)methyl](1-methylpiperidin-4-yl)amine]",130 °C
16,"CN1CCC(OC(c2cccc(C(=O)N(C)c3ccccc3)c2)c2nc3ccccc3s2)CC1 (stereo not shown) (as salt: oxalate) [Example 223, 3-[benzothiazol-2-yl(1-methylpiperidin-4-yloxy)methyl]-N-methyl-N-phenylbenzamide]",125 °C
17,"CN1CCC(OC(c2cccc(C#CCCCCN)c2)c2nc3ccccc3n2C)CC1 (stereo not shown) (as salt: oxalate) [Example 480, 6-{3-[(1-methyl-1H-benzimidazol-2-yl)(1-methylpiperidin-4-yloxy)methyl]phenyl}hex-5-ynylamine]",113 °C
18,"COc1cc(F)cc(C(OC2CCN(C)CC2)c2nc3ccccc3s2)c1 (stereo not shown) (as salt: oxalate) [Example 40, 2-[(3-fluoro-5-methoxyphenyl)(1-methylpiperidin-4-yloxy)methyl]benzothiazole]",145 °C
19,"CN1CCC(OC(c2cccc(SCCCCN)c2)c2nc3ccccc3[nH]2)CC1 (stereo not shown) (as salt: oxalate) [Example 326, 4-{3-[(1H-benzimidazol-2-yl)(1-methylpiperidin-4-yloxy)methyl]phenylsulfanyl}butylamine]",146 °C
20,"CN1CCC(OC(c2cccc(C(F)(F)F)c2)c2nc3ccccc3s2)CC1 (stereo not shown) (as salt: hydrochloride) [Example 31, 2-[(1-methylpiperidin-4-yloxy)(3-trifluoromethylphenyl)methyl]benzothiazole]",61 °C

row,SMILES,melting point
1,"CN1CCC(OC(c2cccc(OCCCCN3CCOCC3)c2)c2nc3ccccc3[nH]2)CC1 (stereo not shown) (as salt: oxalate) [Example 332, 2-{(1-methylpiperidin-4-yloxy)[3-(4-morpholin-4-yl-butoxy)phenyl]methyl}-1H-benzimidazole]",85 °C
2,CCOC(=O)n1c(C(OC2CCN(C)CC2)c2cc(OC(F)(F)F)ccc2F)nc2ccccc21 (stereo not shown) (as salt: oxalate) [Example 553],118 °C
3,CN1CCC(OC(c2cccc(N3CCC(F)C3)c2)c2nc3ccccc3s2)CC1 (stereo not shown) (as salt: oxalate) [Example 454],103 °C
4,"CN1CCC(OC(c2cccc(C(=O)N(C)Cc3ccccc3)c2)c2nc3ccccc3s2)CC1 (stereo not shown) (as salt: oxalate) [Example 219, 3-[benzothiazol-2-yl(1-methylpiperidin-4-yloxy)methyl]-N-benzyl-N-methylbenzamide]",103 °C
5,CN1CCC(OC(c2nc3ccccc3[nH]2)c2cc(OC(F)(F)F)ccc2Cl)CC1 (stereo not shown) (as salt: oxalate) [Example 524],107 °C
6,"CN1CCC(OC(c2cccc(OCCCCO)c2)c2nc3ccccc3s2)CC1 (stereo not shown) (as salt: oxalate) [Example 266, 4-{3-[benzothiazol-2-yl(1-methylpiperidin-4-yloxy)methyl]phenoxy}butan-1-ol]",63 °C
7,"CN1CCC(NC(c2cccc(OCc3cccc(F)c3)c2)c2nc3ccccc3[nH]2)CC1 (stereo not shown) (as salt: oxalate) [Example 105, {(1H-benzimidazol-2-yl)[3-(3-fluorobenzyloxy)phenyl]methyl}(1-methylpiperidin-4-yl)amine]",116 °C
8,"CN1CCC(OC(c2cccc(OCCCN)c2)c2nc3ccccc3s2)CC1 (stereo not shown) (as salt: oxalate) [Example 311, 3-{3-[benzothiazol-2-yl(1-methylpiperidin-4-yloxy)methyl]phenoxy}propylamine]",120 °C
9,"COCCOc1cccc(C(OC2CCN(C)CC2)c2nc3ccccc3s2)c1 (stereo not shown) (as salt: oxalate) [Example 277, 2-[[3-(2-methoxyethoxy)phenyl](1-methylpiperidin-4-yloxy)methyl]benzothiazole]",80 °C
10,"CN1CCC(OC(c2cccc(OCc3ccccc3)c2)c2nc3ccccc3s2)CC1 (stereo not shown) (as salt: oxalate) [Example 45, 2-[(3-benzyloxyphenyl)(1-methylpiperidin-4-yloxy)methyl]benzothiazole]",52 °C
11,CN1CCC(OC(c2nc3cccc(F)c3[nH]2)c2cc(OC(F)(F)F)ccc2F)CC1 (stereo not shown) (as salt: oxalate) [Example 529],135 °C
12,"CN1CCC(OC(c2cccc(C#CCCCCN)c2)c2nc3ccccc3s2)CC1 (stereo not shown) (as salt: oxalate) [Example 319, 6-{3-[benzothiazol-2-yl(1-methylpiperidin-4-yloxy)methyl]phenyl}hex-5-ynylamine]",135 °C
13,"CC(=O)CCCOc1cccc(C(OC2CCN(C)CC2)c2nc3ccccc3s2)c1 (stereo not shown) (as salt: oxalate) [Example 186, 5-{3-[benzothiazol-2-yl(1-methylpiperidin-4-yloxy)methyl]phenoxy}pentan-2-one]",72 °C
14,"CN1CCC(NC(c2cccc(OCc3ccc(F)cc3)c2)c2nc3ccccc3[nH]2)CC1 (stereo not shown) (as salt: oxalate) [Example 103, {(1H-benzimidazol-2-yl)[3-(4-fluorobenzyloxy)phenyl]methyl}(1-methylpiperidin-4-yl)amine]",140 °C
15,"CN1CCC(OC(c2cccc(N3CCC(O)C3)c2)c2nc3ccccc3s2)CC1 (stereo not shown) (as salt: oxalate) [Example 406, 1-{3-[benzothiazol-2-yl(1-methylpiperidin-4-yloxy)methyl]phenyl}pyrrolidin-3-ol]",103 °C
16,CN1CCC(OC(c2cccc(OC3CCC(N)C3)c2)c2nc3ccccc3s2)CC1 (stereo not shown) (as salt: oxalate) [Example 453],91 °C
17,Cc1cc(F)c(C(OC2CCN(C)CC2)c2nc3ccccc3o2)c(F)c1 (stereo not shown) (as salt: oxalate) [Example 536],114 °C
18,"CN1CCC(OC(c2cccc(-c3ccc(Cl)c(Cl)c3)c2)c2nc3ccccc3[nH]2)CC1 (stereo not shown) (as salt: oxalate) [Example 122, 2-[(3′,4′-dichlorobiphenyl-3-yl)(1-methylpiperidin-4-yloxy)methyl]-1H-benzimidazole]",150 °C
19,CN1CCC(OC(c2cc(C(F)(F)F)cc(C(F)(F)F)c2)c2nc3ccccc3[nH]2)CC1 (stereo not shown) (as salt: oxalate) [Example 547],130 °C
20,"CC(=O)NC1CCN(c2cccc(C(OC3CCN(C)CC3)c3nc4ccccc4s3)c2)C1 (stereo not shown) (as salt: oxalate) [Example 408, N-(1-{3-[benzothiazol-2-yl(1-methylpiperidin-4-yloxy)methyl]phenyl}pyrrolidin-3-yl)acetamide]",111 °C
